Biological target: human F508del CFTR (Homo sapiens (Human), UniProt P13569, DEL508-508)
Assay: CFTR-YFP High Throughput Assay (YFP flux assay, FRT cells)
Format: cell-based
Details: FRT cells expressing human F508del CFTR and YFP
Procedure: This protocol is designed to selectively screen small molecule compounds for F508del CFTR corrector activities in the YFP (yellow fluorescent protein) flux assay. In this protocol, the cells are incubated with testing compounds for 24 hours, washed with PBS, stimulated with forskolin and a standard potentiator, and fluorescence in each plate well is measured kinetically read on a 384-well plate reader, such as the Hamamatsu FDSS-6000.
YFP fluorescence intensity values are acquired at high speed before and after iodide buffer is injected to the assay cells. Iodide enters the cells via active CFTR channels in the plasma membrane, and quenches the YFP fluorescence. The rate of fluorescence quenching is proportionate to the total CFTR activity in the cell membrane. F508del CFTR correctors increase the number of CFTR molecules in the testing cell plasma membrane, and thereby accelerate YFP quenching.
This method was initially developed for bench top plate readers (Galietta, J, Jayaraman, S and Verkman, A S. Cell-based assay for high-throughput quantitative screening of CFTR chloride transport agonists. Am. J. Physiol. Cell Physiol. (2001), 281: C173), and was adapted to the HTS format (Sui J, Cotard S, Andersen J, Zhu P, Staunton J, Lee M, Lin S. Optimization of a Yellow fluorescent protein-based iodide influx high-throughput screening assay for cystic fibrosis transmembrane conductance regulator (CFTR) modulators. Assay Drug Dev Technol. (2010), 8: 656-668).
Fisher Rat Thyroid (FRT) cells stably expressing both human F508del CFTR and a halide-sensitive yellow fluorescent protein (YFP-H148Q/I152L 25,22) (Galietta et al. Am. J. Physiol Cell Physiol 281(5), C1734, 2001) were cultured on plastic surface in Coon's modified Ham's F12 medium supplemented with FBS 10%, L-glutamine 2 mM, penicillin 100 U/ml, and streptomycin […]. G418 (0.75-1.0 mg/ml) and zeocin (3.2 ug/ml) were used for selection of FRT cells expressing F508del CFTR and YFP. For primary screening, FRT cells were plated into 384-well black wall, transparent bottom microtiter plates (Costar; Corning Inc.) at a cell density of 20,000-40,000 per well. Test compound was applied to the cells at varying concentrations ranging from 2 nM-40 μM in either a 2-fold or 3-fold dilution series. Cells were incubated in a cell culture incubator at 37° C. with 5% CO2 for 24-26 h. Assay plates were washed with DPBS media (Thermo, cat# SH30028.02) to remove unbound cells and compound. Stimulation media (25 μL) containing 20 μM Forskolin & 30 μM P3 [6-(Ethyl-phenyl-sulfonyl)-4-oxo-1,4-dihydro-quinoline-3-carboxylic acid 2-methoxy-benzylamide] in Hams F-12 coon's modified media was added to the plate wells and incubated at room temperature for 60-120 min. 25 μL of HEPES-PBS-I buffer (10 mM HEPES, 1 mM MgCl2, 3 mM KCl, 1 mM CaCl2, 150 mM NaI) was then added and fluorescence quench curves (Excitation 500 nm/Emission 540 nm; exposure 136 ms) were immediately recorded on an FDSS-6000 plate reader (Hamamatsu). Quench rates were derived from least squares fitting of the data as described by Sui et al (2010).
This protocol is designed to selectively screen small molecule compounds for F508del CFTR potentiator activities in the YFP (yellow fluorescent protein) flux assay. Such compounds act acutely to stimulate CFTR already expressed on the membrane surface. In this protocol, the cells are incubated at 27° C. for 24 hours to homogeneously boost F508del CFTR expression in the cell membrane (low temperature correction), washed with PBS, treated with test compound, and CFTR activity is stimulated with forskolin for 1-2 hr. Measurement of ion flux is initiated by addition of iodide-containing buffer, and YFP quenching is kinetically recorded using a 384-well plate reader, such as the Hamamatsu FDSS-6000.
YFP fluorescence intensity values are acquired at high speed over a 1 min time course before and after iodide buffer is injected to the assay cells. […]

Chain of human F508del CFTR (P13569 other isoform, or with tags, fused parts or gaps del F508-F508): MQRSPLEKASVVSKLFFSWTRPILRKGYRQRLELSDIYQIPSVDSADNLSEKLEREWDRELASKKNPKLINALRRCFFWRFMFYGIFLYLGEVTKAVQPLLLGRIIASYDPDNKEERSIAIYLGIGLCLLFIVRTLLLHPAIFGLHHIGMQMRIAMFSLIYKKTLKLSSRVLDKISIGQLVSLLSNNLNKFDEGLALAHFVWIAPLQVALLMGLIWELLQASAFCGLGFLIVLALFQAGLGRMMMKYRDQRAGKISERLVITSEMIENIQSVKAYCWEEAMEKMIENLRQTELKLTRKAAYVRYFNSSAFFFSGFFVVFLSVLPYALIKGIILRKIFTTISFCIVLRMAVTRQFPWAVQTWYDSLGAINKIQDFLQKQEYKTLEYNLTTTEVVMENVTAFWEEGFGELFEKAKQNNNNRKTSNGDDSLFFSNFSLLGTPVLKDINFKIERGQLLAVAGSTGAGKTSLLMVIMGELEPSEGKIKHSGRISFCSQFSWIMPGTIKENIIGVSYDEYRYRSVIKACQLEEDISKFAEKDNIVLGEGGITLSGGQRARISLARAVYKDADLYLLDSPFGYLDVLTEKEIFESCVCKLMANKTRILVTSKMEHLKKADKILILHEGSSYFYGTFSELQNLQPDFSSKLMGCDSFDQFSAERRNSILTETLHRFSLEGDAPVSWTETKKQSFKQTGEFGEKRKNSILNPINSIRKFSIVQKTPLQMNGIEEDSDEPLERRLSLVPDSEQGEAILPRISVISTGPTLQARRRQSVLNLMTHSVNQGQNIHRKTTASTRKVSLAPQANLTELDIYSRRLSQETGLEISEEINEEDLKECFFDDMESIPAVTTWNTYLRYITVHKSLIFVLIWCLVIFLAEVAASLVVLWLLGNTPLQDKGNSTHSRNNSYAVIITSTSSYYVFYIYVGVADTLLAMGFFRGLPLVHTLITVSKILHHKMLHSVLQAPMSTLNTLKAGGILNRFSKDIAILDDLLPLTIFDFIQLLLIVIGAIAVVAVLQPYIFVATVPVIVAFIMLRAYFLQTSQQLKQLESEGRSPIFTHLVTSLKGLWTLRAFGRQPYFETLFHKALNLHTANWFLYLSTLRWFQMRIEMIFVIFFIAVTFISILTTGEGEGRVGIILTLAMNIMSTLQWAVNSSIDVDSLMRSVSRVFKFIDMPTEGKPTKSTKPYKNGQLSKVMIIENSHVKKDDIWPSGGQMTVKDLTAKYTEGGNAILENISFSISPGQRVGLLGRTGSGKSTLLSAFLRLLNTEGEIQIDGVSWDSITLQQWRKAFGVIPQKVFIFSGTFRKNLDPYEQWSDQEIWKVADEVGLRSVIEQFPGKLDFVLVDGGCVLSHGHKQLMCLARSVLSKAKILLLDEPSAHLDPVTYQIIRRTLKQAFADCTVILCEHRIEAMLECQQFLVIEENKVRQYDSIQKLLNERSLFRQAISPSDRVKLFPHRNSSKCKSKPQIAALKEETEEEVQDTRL

SMILES | EC50 [µM]
COc1cc2c(=O)n(CC(=O)N(C)c3ccc4nc(C)oc4c3)nc(-c3cccc(F)c3)c2cc1Cl [Example 10, 2-(6-chloro-4-(3-fluorophenyl)-7-methoxy-1-oxophthalazin-2(1H)-yl)-N-methyl-N-(2-methylbenzo[d]oxazol-6-yl)acetamide] | < 10
COc1cc2c(=O)n(CC(=O)N(C)c3ccc4nc(C)oc4c3)nc(-c3cccc(Cl)c3)c2cc1Cl [Example 11, 2-(6-chloro-4-(3-chlorophenyl)-7-methoxy-1-oxophthalazin-2(1H)-yl)-N-methyl-N-(2-methylbenzo[d]oxazol-6-yl)acetamide] | < 10
Cc1nc2ccc(N(C)C(=O)Cn3nc(-c4cccc(Cl)c4)c4ccccc4c3=O)cc2o1 [Example 1, 2-(4-(3-chlorophenyl)-1-oxophthalazin-2(1H)-yl)-N-methyl-N-(2-methylbenzo[d]oxazol-6-yl)acetamide] | < 10
Cc1nc2ccc(N(C)C(=O)Cn3nc(-c4cccc(Cl)c4)c4ccc(OC(C)C)cc4c3=O)cc2o1 [Example 25, 2-(4-(3-chlorophenyl)-7-isopropoxy-1-oxophthalazin-2(1H)-yl)-N-methyl-N-(2-methylbenzo[d]oxazol-6-yl)acetamide] | < 10
CCOc1ccc2c(-c3cccc(F)c3)nn(CC(=O)N(C)c3ccc4nc(C)oc4c3)c(=O)c2c1 [Example 17, 2-(7-ethoxy-4-(3-fluorophenyl)-1-oxophthalazin-2(1H)-yl)-N-methyl-N-(2-methylbenzo[d]oxazol-6-yl)acetamide] | < 10
CCOc1cc2c(=O)n(CC(=O)N(C)c3ccc4nc(C)oc4c3)nc(-c3cccc(Cl)c3)c2cc1Cl [Example 31, 2-(6-chloro-4-(3-chlorophenyl)-7-ethoxy-1-oxophthalazin-2(1H)-yl)-N-methyl-N-(2-methylbenzo[d]oxazol-6-yl)acetamide] | < 10

— patent US9682969B2, “Phthalazinone compounds and methods for the treatment of cystic fibrosis” (FLATLEY DISCOVERY LAB, LLC, priority 2013, dated 2017)
